# Source: PubChem BioAssay AID1259407 (Chemical Carcinogenesis Research Information System (CCRIS), 2018)
# Activity calls are given as the source filed them. The rule behind the calls is not given here.
# Test system: CCRIS mutagenicity, Ames/micronucleus/aberration tests
# Assay: CCRIS mutagenicity studies
# [1] = Test System: AMES SALMONELLA TYPHIMURIUM, Strain/Indicator: TA98, Metabolic Activation: NONE, Method: PREINCUBATION
# [2] = Test System: AMES SALMONELLA TYPHIMURIUM, Strain/Indicator: TA100, Metabolic Activation: NONE, Method: PREINCUBATION
# [3] = Test System: AMES SALMONELLA TYPHIMURIUM, Strain/Indicator: TA98, Metabolic Activation: RAT, LIVER, S-9, AROCLOR 1254, Method: STANDARD PLATE
# [4] = Test System: AMES SALMONELLA TYPHIMURIUM, Strain/Indicator: TA100, Metabolic Activation: RAT, LIVER, S-9, AROCLOR 1254, Method: STANDARD PLATE
# [5] = Test System: AMES SALMONELLA TYPHIMURIUM, Strain/Indicator: TA1537, Metabolic Activation: NONE, Method: STANDARD PLATE
# [6] = Test System: AMES SALMONELLA TYPHIMURIUM, Strain/Indicator: TA1537, Metabolic Activation: RAT, LIVER, S-9, AROCLOR 1254, Method: STANDARD PLATE
# [7] = Test System: AMES SALMONELLA TYPHIMURIUM, Strain/Indicator: TA1538, Metabolic Activation: NONE, Method: STANDARD PLATE
# [8] = Test System: AMES SALMONELLA TYPHIMURIUM, Strain/Indicator: TA1538, Metabolic Activation: RAT, LIVER, S-9, AROCLOR 1254, Method: STANDARD PLATE
# [9] = Test System: AMES SALMONELLA TYPHIMURIUM, Strain/Indicator: TA100, Metabolic Activation: NONE, Method: STANDARD PLATE
# [10] = Test System: AMES SALMONELLA TYPHIMURIUM, Strain/Indicator: TA100, Metabolic Activation: RAT, LIVER, S-9, AROCLOR 1254, Method: PREINCUBATION
structure (smiles),measurement,setting,value
O=S(=O)(O)OOS(=O)(=O)O,mutagenic call,"Test System: AMES SALMONELLA TYPHIMURIUM, Strain/Indicator: TA97, Metabolic Activation: NONE, Method: PREINCUBATION",inactive; negative
same,mutagenic call,"Test System: AMES SALMONELLA TYPHIMURIUM, Strain/Indicator: TA97, Metabolic Activation: RAT, LIVER, S-9, AROCLOR 1254, Method: PREINCUBATION",inactive; negative
same,mutagenic call,[1],inactive; negative
same,mutagenic call,"Test System: AMES SALMONELLA TYPHIMURIUM, Strain/Indicator: TA98, Metabolic Activation: RAT, LIVER, S-9, KC 500, Method: PREINCUBATION",inactive; negative
same,mutagenic call,[2],inactive; negative
same,mutagenic call,"Test System: AMES SALMONELLA TYPHIMURIUM, Strain/Indicator: TA100, Metabolic Activation: RAT, LIVER, S-9, KC 500, Method: PREINCUBATION",inactive; negative
same,mutagenic call,"Test System: AMES SALMONELLA TYPHIMURIUM, Strain/Indicator: TA102, Metabolic Activation: NONE, Method: PREINCUBATION",inactive; negative
same,mutagenic call,"Test System: AMES SALMONELLA TYPHIMURIUM, Strain/Indicator: TA102, Metabolic Activation: RAT, LIVER, S-9, AROCLOR 1254, Method: PREINCUBATION",inactive; negative
same,mutagenic call,"Test System: AMES SALMONELLA TYPHIMURIUM, Strain/Indicator: TA1535, Metabolic Activation: NONE, Method: PREINCUBATION",inactive; negative
same,mutagenic call,"Test System: AMES SALMONELLA TYPHIMURIUM, Strain/Indicator: TA1535, Metabolic Activation: RAT, LIVER, S-9, KC 500, Method: PREINCUBATION",inactive; negative
same,mutagenic call,"Test System: AMES SALMONELLA TYPHIMURIUM, Strain/Indicator: TA1537, Metabolic Activation: NONE, Method: PREINCUBATION",inactive; negative
same,mutagenic call,"Test System: AMES SALMONELLA TYPHIMURIUM, Strain/Indicator: TA1537, Metabolic Activation: RAT, LIVER, S-9, KC 500, Method: PREINCUBATION",inactive; negative
same,mutagenic call,"Test System: AMES SALMONELLA TYPHIMURIUM, Strain/Indicator: TA1538, Metabolic Activation: NONE, Method: PREINCUBATION",inactive; negative
same,mutagenic call,"Test System: AMES SALMONELLA TYPHIMURIUM, Strain/Indicator: TA1538, Metabolic Activation: RAT, LIVER, S-9, KC 500, Method: PREINCUBATION",inactive; negative
same,mutagenic call,"Test System: E. COLI, Strain/Indicator: WP2 UVRA, Metabolic Activation: NONE, Method: PREINCUBATION",inactive; negative
same,mutagenic call,"Test System: E. COLI, Strain/Indicator: WP2 UVRA, Metabolic Activation: RAT, LIVER, S-9, KC 500, Method: PREINCUBATION",inactive; negative
O=C1C[C@H](O)[C@@H]2c3c(ccc(O)c31)-c1ccc(O)c3c1[C@@]2(O)CCC3=O,mutagenic call,"Test System: AMES SALMONELLA TYPHIMURIUM, Strain/Indicator: TA98, Metabolic Activation: RAT LIVER S-9, AROCLOR 1254, Method: STANDARD PLATE",active; positive
same,mutagenic call,[3],active; positive
same,mutagenic call,"Test System: AMES SALMONELLA TYPHIMURIUM, Strain/Indicator: TA100, Metabolic Activation: RAT LIVER S-9, AROCLOR 1254, Method: STANDARD PLATE",inactive; negative
same,mutagenic call,[4],active; positive
same,mutagenic call,[5],active; positive
same,mutagenic call,[6],active; positive
same,mutagenic call,"Test System: Ames Salmonella typhimurium, Strain/Indicator: TA97, Metabolic Activation: None, Method: Standard plate",inactive; negative. nitrosation increased mutagenicity
same,mutagenic call,"Test System: Ames Salmonella typhimurium, Strain/Indicator: TA97, Metabolic Activation: Rat, Liver, S-9, Aroclor 1254 (10%), Method: Standard plate",inactive; negative. nitrosation increased mutagenicity
same,mutagenic call,"Test System: Ames Salmonella typhimurium, Strain/Indicator: TA102, Metabolic Activation: None, Method: Standard plate",active; positive. nitrosation yielded mutagenic product
same,mutagenic call,"Test System: Ames Salmonella typhimurium, Strain/Indicator: TA102, Metabolic Activation: Rat, Liver, S-9, Aroclor 1254 (10%), Method: Standard plate",active; positive. nitrosation yielded mutagenic product
same,mutagenic call,"Test System: Ames Salmonella typhimurium, Strain/Indicator: TA104, Metabolic Activation: None, Method: Standard plate",inactive; negative. nitrosation increased mutagenicity
same,mutagenic call,"Test System: Ames Salmonella typhimurium, Strain/Indicator: TA104, Metabolic Activation: Rat, Liver, S-9, Aroclor 1254 (10%), Method: Standard plate",inactive; negative. nitrosation increased mutagenicity
same,mutagenic call,"Test System: Chinese hamster fibroblasts, Strain/Indicator: V79 (Hprt)/6-thioguanine, Metabolic Activation: None, Method: Standard plate",inactive; negative (positive in presence of nitrosating medium_
same,mutagenic call,"Test System: Rat hepatoma cells, Strain/Indicator: H4IIE (Hprt/6-thioguanine), Metabolic Activation: None, Method: Standard plate",inactive; negative (positive in presence of nitrosating medium)
CCN(CC)c1ccc(-c2ccc(-c3ccc(-c4ccc(N(CC)CC)cc4)cc3)cc2)cc1,mutagenic call,[7],inactive; negative
same,mutagenic call,[8],inactive; negative
Nc1cccc([N+](=O)[O-])c1CO,mutagenic call,[1],inactive; negative
same,mutagenic call,"Test System: AMES SALMONELLA TYPHIMURIUM, Strain/Indicator: TA98, Metabolic Activation: RAT, LIVER, S-9, PHENOBARBITAL AND 5,6-BENZOFLAVONE, Method: PREINCUBATION",inactive; negative
same,mutagenic call,[2],inactive; negative
same,mutagenic call,"Test System: AMES SALMONELLA TYPHIMURIUM, Strain/Indicator: TA100, Metabolic Activation: RAT, LIVER, S-9, PHENOBARBITAL AND 5,6-BENZOFLAVONE, Method: PREINCUBATION",inactive; negative
Oc1ccc2c(c1)sc1ccccc12,mutagenic call,"Test System: CHINESE HAMSTER OVARY, Strain/Indicator: CHO-K1-BH4 (HGPRT)/6-THIOGUANINE, Metabolic Activation: RAT, LIVER, S-9, AROCLOR (4%)",active; positive
O=CN(O)c1ccc(Oc2c(Cl)cc(Cl)cc2Cl)cc1,mutagenic call,[9],inactive; negative
same,mutagenic call,"Test System: AMES SALMONELLA TYPHIMURIUM, Strain/Indicator: TA100, Metabolic Activation: RAT, LIVER, S-9, KANECLOR 500, Method: STANDARD PLATE",active; positive
O=S(=O)(O)c1ccc(O)c2ncccc12,mutagenic call,[1],inactive; negative
same,mutagenic call,"Test System: AMES SALMONELLA TYPHIMURIUM, Strain/Indicator: TA98, Metabolic Activation: RAT, LIVER, S-9, Method: PREINCUBATION",active; positive
same,mutagenic call,[2],inactive; negative
same,mutagenic call,"Test System: AMES SALMONELLA TYPHIMURIUM, Strain/Indicator: TA100, Metabolic Activation: RAT, LIVER, S-9, Method: PREINCUBATION",active; positive
CC(O)CN(C)c1ccc(NN)nn1 (centres undefined),mutagenic call,"Test System: AMES SALMONELLA TYPHIMURIUM, Strain/Indicator: TA97, Metabolic Activation: NONE, Method: STANDARD PLATE",active; positive
same,mutagenic call,"Test System: AMES SALMONELLA TYPHIMURIUM, Strain/Indicator: TA97, Metabolic Activation: RAT, LIVER, S-9, AROCLOR 1254, Method: STANDARD PLATE",active; positive
same,mutagenic call,"Test System: AMES SALMONELLA TYPHIMURIUM, Strain/Indicator: TA98, Metabolic Activation: NONE, Method: STANDARD PLATE",active; positive
same,mutagenic call,[3],active; positive
same,mutagenic call,[9],inactive; negative
same,mutagenic call,[4],inactive; negative
same,mutagenic call,"Test System: AMES SALMONELLA TYPHIMURIUM, Strain/Indicator: TA102, Metabolic Activation: NONE, Method: STANDARD PLATE",active; positive
same,mutagenic call,"Test System: AMES SALMONELLA TYPHIMURIUM, Strain/Indicator: TA102, Metabolic Activation: RAT, LIVER, S-9, AROCLOR 1254, Method: STANDARD PLATE",inactive; negative
same,mutagenic call,"Test System: AMES SALMONELLA TYPHIMURIUM, Strain/Indicator: TA1535, Metabolic Activation: NONE, Method: STANDARD PLATE",inactive; negative
same,mutagenic call,"Test System: AMES SALMONELLA TYPHIMURIUM, Strain/Indicator: TA1535, Metabolic Activation: RAT, LIVER, S-9, AROCLOR 1254, Method: STANDARD PLATE",inactive; negative
same,mutagenic call,[5],active; positive
same,mutagenic call,[6],active; positive
same,mutagenic call,[7],active; positive
same,mutagenic call,[8],active; positive
same,mutagenic call,"Test System: E. COLI, Strain/Indicator: WP2, Metabolic Activation: RAT, LIVER, S-9, AROCLOR 1254, Method: STANDARD PLATE",inactive; negative
same,mutagenic call,"Test System: E. COLI, Strain/Indicator: WP2 UVRA, Metabolic Activation: RAT, LIVER, S-9, AROCLOR 1254, Method: STANDARD PLATE",active; positive
Fc1ccnc2ccccc12,mutagenic call,[10],active; positive
same,mutagenic call,"Test System: UDS RODENT HEPATOCYTES, Strain/Indicator: THY INCORP (NON-S-PHASE), Metabolic Activation: NONE, Method: AUTORADIOGRAPHY",inactive; negative
O=[N+]([O-])c1cccc(CBr)c1,mutagenic call,[1],inactive; negative
same,mutagenic call,[2],inactive; negative
same,mutagenic call,[10],inactive; negative
